Laboratory results taken from patent US20260109715A1, “IMIDAZOPYRIDINE DERIVATIVES WITH BICYCLIC STRUCTURE” (PUBLIC UNIVERSITY CORPORATION YOKOHAMA CITY UNIVERSITY, priority 2022, published 2026).

Legend:
[1] = target: human SMG1 enzyme (Homo sapiens, UniProt Q96Q15); assay: Measurement of SMG1 kinase activity (ADP-Glo Kinase Assay); type: biochemical; conditions: purified human SMG1 enzyme 5 nM, Upf1 peptide substrate, ATP 4 μM; qAC50 synonymous with IC50; read-out: Test Example 1 ADP-Glo IC50
From the text: The SMG1 kinase inhibitory activity of a compound of the present invention or a pharmaceutically acceptable salt thereof can be measured, for example, by the method described below. Using purified human SMG1 protein and a substrate peptide as materials, the kinase activity can be measured by the ADP-Glo Kinase Assay; the SMG1 kinase inhibitory activity of a test substance can be evaluated by comparing the kinase activity in the presence and absence of the test substance.
The reaction was performed by the ADP-Glo Kinase Assay (Promega, catalog number V9102) using a 384-well plate under the conditions of an assay buffer (100 mM HEPES (pH 7.5), 50 mM NaCl, 10 mM MnCl2, 0.01% BSA, 0.1% Tween 20.5 mM TCEP). After incubating a test substance (DMSO solution; final DMSO concentration: 1%) and purified human SMG1 enzyme (Genes Dev. 2011 Jan. 15; 25(2): 153-164, produced by Daiichi Sankyo RD Novare Co., Ltd.; final concentration: 5 nM) at room temperature for 15 minutes, a substrate, Upf1 peptide (Biotin-(PEG8) QIDVALSQDSTYQG, produced by Eurofins genomics; final concentration: 8 μg/mL), and ATP (Promega: 4 μM) were added, and the mixture was reacted at room temperature for 60 minutes (see Non-Patent Literature R. Melero, et al., Structure Volume 22, Issue 8, 5 Aug. 2014, Pages 1105-1119 for the Upf1 peptide). ADP-Glo Reagent was added, and the mixture was reacted at room temperature for 40 minutes. Kinase Detection Reagent was added, and the mixture was reacted for another 30 minutes. The luminescence intensity was measured using EnVision (PerkinElmer).
The activity value (%) of the test substance-added well was calculated from the following formula, where the average luminescence intensity of the DMSO-added well was 0% and the average luminescence intensity of the SMG1 enzyme-free well was −100%.
The qAC50 (compound concentration showing 50% inhibition, synonymous with IC50) of the test substance was calculated using the activity value (%) at each concentration by Smart fit of Screener (Genedata). Smart fit is a general 4-parameter logistic regression model.

[2] = system: Snhg1 transcript (NMD target gene) in EMT6 murine breast cancer cell line; assay: Measurement of NMD inhibitory activity in cells (increase in Snhg1 transcript, real-time PCR); set-up: species or system mouse; conditions: Mus musculus, 6 hours treatment, concentration giving 1/2 of maximum Snhg1 fold change of positive control, read-out: Test Example 2 Cell-based Snhg1 EC50
Experimental: The NMD inhibitory activity of a compound of the present invention or a pharmaceutically acceptable salt thereof in cells can be measured, for example, by the method described below. EMT6 murine breast cancer cell line is treated with a test substance in vitro for 6 hours, and the increase in the transcript of Snhg1, a known NMD target gene, is quantified as an indicator of NMD inhibition. Quantification is performed by real-time PCR.
NMD inhibitory activity was measured by treating EMT6 murine breast cancer cell line (ATCC) with a test substance and quantifying the increase in the transcript of Snhg1, an NMD target gene (see F. Usui, et al., Scientific Reports volume 9, Article number: 1279 (2019) for the NMD target gene). That is, EMT6 cells were suspended in Waymouth's medium (Gibco, 15% FBS) and seeded in a 96-well plate at 2×10^4 cells/well. The cells were cultured for 1 day. The next day, serially diluted test substance (DMSO solution, final DMSO concentration: 2%) was added. After culturing for 6 hours, the supernatant was removed, and RNA was extracted using the RNeasy 96 kit (QIAGEN, 74182). After synthesizing cDNA using the High Capacity cDNA Reverse Transcription kit (Applied Biosystems, 4368813), the cDNA was mixed with PrimeTime Gene Expression Master Mix (Integrated DNA Technologies) and various probes, and gene expression was quantified using QuantStudio 6 Flex (Thermo Fisher Scientific Inc.). For the probe for the Snhg1 gene, which is an NMD target, Mm.PT.58.44039547 (FAM)(Integrated DNA Technologies) was used, and for the probe for the Tbp gene, which is an endogenous control, Mm00446973_m1 Tbp (VIC-PL) (Applied Biosystems) was used. The relative quantification of Snhg1 transcripts was calculated by the ΔΔCT method, using Thp as an endogenous control and setting the expression level of Snhg1 in untreated wells to 1.
A known NMD inhibitory compound (pyrimidine derivative Example 11i, Bioorg Med Chem Lett. 2012, 22(21), 6636-41) was used as a positive control drug for NMD inhibition. The NMD inhibitory activity of the test substance-added well was calculated as follows: the maximum fold change in Sngh1 expression in the positive control drug-added well relative to that in the untreated well was defined as the maximum NMD inhibitory activity, and the EC50 (compound concentration showing 50%/activity) of the test substance showing a ½-fold change was calculated by the GROWTH function of Microsoft Excel.

Sequence of human SMG1 enzyme (Q96Q15 whole entry): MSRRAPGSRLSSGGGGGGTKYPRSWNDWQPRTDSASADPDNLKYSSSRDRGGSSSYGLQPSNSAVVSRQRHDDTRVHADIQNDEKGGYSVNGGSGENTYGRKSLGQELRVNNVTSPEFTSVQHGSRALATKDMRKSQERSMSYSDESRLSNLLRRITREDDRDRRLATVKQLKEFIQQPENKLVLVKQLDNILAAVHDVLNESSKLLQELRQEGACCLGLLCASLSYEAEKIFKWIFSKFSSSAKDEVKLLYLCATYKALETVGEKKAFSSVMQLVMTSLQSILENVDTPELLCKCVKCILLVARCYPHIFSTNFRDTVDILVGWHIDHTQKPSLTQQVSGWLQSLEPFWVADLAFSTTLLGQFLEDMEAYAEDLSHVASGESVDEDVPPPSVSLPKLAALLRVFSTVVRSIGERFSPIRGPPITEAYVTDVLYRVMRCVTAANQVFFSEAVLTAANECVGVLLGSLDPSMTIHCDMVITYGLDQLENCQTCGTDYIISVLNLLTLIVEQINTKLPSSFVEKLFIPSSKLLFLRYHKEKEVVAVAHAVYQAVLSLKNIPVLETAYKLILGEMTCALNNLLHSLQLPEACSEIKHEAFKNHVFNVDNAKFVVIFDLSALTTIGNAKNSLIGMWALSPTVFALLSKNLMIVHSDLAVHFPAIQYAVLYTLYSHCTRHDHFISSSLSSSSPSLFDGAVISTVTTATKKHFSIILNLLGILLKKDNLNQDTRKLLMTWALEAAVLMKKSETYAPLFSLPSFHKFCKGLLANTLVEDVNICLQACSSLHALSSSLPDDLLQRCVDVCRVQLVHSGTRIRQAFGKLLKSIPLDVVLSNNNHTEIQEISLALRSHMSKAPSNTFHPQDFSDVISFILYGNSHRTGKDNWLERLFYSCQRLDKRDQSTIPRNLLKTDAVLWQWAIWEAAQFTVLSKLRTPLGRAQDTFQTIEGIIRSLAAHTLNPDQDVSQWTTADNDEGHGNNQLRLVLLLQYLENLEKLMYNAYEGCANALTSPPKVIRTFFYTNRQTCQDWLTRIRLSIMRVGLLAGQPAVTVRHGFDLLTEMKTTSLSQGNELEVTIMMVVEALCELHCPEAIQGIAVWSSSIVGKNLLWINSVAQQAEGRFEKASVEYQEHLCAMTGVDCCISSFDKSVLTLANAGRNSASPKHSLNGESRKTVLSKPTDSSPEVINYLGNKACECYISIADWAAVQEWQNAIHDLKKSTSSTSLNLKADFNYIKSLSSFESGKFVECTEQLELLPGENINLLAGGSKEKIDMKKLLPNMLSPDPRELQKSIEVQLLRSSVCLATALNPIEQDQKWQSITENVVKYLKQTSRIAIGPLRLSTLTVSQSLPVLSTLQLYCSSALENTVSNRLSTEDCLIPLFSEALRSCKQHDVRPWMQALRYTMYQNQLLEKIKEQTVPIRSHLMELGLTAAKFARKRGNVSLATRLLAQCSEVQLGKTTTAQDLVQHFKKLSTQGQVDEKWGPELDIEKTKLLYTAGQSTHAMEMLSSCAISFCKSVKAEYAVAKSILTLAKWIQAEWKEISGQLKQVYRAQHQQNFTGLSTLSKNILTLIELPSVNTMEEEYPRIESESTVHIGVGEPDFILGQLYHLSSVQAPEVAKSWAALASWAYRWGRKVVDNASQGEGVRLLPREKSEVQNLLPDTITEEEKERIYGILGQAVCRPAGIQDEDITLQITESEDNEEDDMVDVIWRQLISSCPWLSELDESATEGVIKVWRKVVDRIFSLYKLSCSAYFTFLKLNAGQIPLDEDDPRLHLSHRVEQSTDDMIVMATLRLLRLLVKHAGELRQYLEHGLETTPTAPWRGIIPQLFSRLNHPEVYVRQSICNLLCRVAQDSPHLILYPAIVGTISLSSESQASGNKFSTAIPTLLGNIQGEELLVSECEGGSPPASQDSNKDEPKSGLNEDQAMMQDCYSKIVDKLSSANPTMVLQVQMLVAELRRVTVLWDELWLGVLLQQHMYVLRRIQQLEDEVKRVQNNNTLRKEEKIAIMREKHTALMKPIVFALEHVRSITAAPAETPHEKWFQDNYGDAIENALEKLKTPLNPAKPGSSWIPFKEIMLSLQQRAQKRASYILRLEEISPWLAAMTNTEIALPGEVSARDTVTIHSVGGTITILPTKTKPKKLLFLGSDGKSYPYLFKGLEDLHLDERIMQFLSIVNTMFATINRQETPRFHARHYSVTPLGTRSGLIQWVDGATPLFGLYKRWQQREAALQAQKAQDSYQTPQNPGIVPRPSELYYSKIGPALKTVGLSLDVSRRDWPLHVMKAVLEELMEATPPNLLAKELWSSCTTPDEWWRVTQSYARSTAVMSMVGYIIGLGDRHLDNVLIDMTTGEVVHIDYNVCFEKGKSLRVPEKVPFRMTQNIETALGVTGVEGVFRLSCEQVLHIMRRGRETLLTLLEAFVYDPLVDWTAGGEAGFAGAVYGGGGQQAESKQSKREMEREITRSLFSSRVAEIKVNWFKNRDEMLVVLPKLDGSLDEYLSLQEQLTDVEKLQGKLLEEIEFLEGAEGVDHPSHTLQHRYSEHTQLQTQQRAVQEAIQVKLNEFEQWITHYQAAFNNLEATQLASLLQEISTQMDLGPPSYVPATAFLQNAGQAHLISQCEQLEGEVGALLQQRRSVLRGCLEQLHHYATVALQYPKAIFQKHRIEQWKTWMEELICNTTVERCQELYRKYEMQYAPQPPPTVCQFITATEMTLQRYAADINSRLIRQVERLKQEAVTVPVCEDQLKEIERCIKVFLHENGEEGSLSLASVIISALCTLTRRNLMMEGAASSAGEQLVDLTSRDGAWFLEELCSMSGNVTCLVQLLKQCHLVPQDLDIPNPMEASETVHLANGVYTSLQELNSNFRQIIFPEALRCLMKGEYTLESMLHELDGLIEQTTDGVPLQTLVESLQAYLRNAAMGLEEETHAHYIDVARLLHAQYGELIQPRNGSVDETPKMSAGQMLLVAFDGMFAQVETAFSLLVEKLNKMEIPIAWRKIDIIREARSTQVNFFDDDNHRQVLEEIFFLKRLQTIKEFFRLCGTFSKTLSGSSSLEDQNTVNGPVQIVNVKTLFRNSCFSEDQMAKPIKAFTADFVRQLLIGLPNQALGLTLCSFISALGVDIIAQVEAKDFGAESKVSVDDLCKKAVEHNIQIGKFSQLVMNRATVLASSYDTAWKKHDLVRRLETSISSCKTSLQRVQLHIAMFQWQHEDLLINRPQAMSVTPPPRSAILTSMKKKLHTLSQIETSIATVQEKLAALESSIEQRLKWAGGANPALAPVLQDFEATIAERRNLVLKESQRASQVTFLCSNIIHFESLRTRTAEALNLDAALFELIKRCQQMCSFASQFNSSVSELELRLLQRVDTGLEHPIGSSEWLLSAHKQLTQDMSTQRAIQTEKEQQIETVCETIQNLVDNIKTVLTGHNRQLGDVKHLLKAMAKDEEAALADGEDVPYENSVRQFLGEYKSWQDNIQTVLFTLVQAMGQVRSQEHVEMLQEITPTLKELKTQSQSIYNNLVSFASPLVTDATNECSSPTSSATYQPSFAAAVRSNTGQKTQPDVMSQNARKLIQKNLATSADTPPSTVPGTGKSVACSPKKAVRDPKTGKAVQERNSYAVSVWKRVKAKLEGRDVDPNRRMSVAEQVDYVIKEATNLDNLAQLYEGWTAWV

SMILES	IC50 [1] [nM]	EC50 [2] [nM]
Cc1c(-c2nccc3[nH]c(=O)c(-c4nc5cnc(Cl)cc5[nH]4)cc23)c(C2CC2)nn1CC(F)F [Example 93, 3-(6-chloro-1H-imidazo[4,5-c]pyridin-2-yl)-5-[3-cyclopropyl-1-(2,2-difluoroethyl)-5-methyl-1H-pyrazol-4-yl]-1,6-naphthyridin-2(1H)-one]	1.2	81
Cc1c(-c2nccc3[nH]c(=O)c(-c4nc5cnc(Cl)cc5[nH]4)cc23)c(C(F)F)nn1C(C)C [Example 94, 3-(6-chloro-1H-imidazo[4,5-c]pyridin-2-yl)-5-[3-(difluoromethyl)-5-methyl-1-(propan-2-yl)-1H-pyrazol-4-yl]-1,6-naphthyridin-2(1H)-one]	1.5	60
O=c1[nH]c2ccnc(-c3cnn4c3OCCC4)c2cc1-c1nc2cnc(Cl)cc2[nH]1 [Example 95, 3-(6-chloro-1H-imidazo[4,5-c]pyridin-2-yl)-5-(6,7-dihydro-5H-pyrazolo[5,1-b][1,3]oxazin-3-yl)-1,6-naphthyridin-2(1H)-one]	1	82
O=C1Nc2ccnc(-c3ccccc3Cl)c2CN1c1nc2cnc(Cl)cc2[nH]1 [Example 102, 3-(6-chloro-1H-imidazo[4,5-c]pyridin-2-yl)-5-(2-chlorophenyl)-3,4-dihydropyrido[4,3-d]pyrimidin-2(1H)-one]	2.8	76
COc1ccccc1-c1nccc2c1CN(c1nc3cnc(Cl)cc3[nH]1)C(=O)N2 [Example 103, 3-(6-chloro-1H-imidazo[4,5-c]pyridin-2-yl)-5-(2-methoxyphenyl)-3,4-dihydropyrido[4,3-d]pyrimidin-2(1H)-one]	3.3	71
O=c1[nH]c2ccnc(C3=CCCN(S(=O)(=O)C4CC4)C3)c2cc1-c1nc2cnc(Cl)cc2[nH]1 [Example 104, 3-(6-chloro-1H-imidazo[4,5-c]pyridin-2-yl)-5-[1-(cyclopropylsulfonyl)-1,2,5,6-tetrahydropyridin-3-yl]-1,6-naphthyridin-2(1H)-one]	0.79	75
O=C(C1CC1)N1CCC=C(c2nccc3[nH]c(=O)c(-c4nc5cnc(Cl)cc5[nH]4)cc23)C1 [Example 105, 3-(6-chloro-1H-imidazo[4,5-c]pyridin-2-yl)-5-[1-(cyclopropylcarbonyl)-1,2,5,6-tetrahydropyridin-3-yl]-1,6-naphthyridin-2(1H)-one]	1.5	59
O=c1[nH]c2ccnc(C3CCCCN(S(=O)(=O)c4ccccc4)C3)c2cc1-c1nc2cnc(Cl)cc2[nH]1 (stereo not shown) [Example 106, 3-(6-chloro-1H-imidazo[4,5-c]pyridin-2-yl)-5-[1-(phenylsulfonyl)azepan-3-yl]-1,6-naphthyridin-2(1H)-one]	2.5	87
CN1CCCN(C)c2nc(Cl)cc3[nH]c(nc23)-c2cc3c(nccc3[nH]c2=O)-c2ccc(cc2F)C1=O [Example 107, 7-Chloro-18-fluoro-10,14-dimethyl-3,8,10,14,21,25,31-heptaazahexacyclo[18.6.2.2^16,19.1^2,5.0^4,9.0^24,28]hentriacont-1(27),2,4,6,8,16,18,20(28),21,23,29-undecaen-15,26-dione]	0.64	30
Cc1c2cccc1-c1nccc3[nH]c(=O)c(cc13)-c1nc3c(nc(Cl)cc3[nH]1)N(C)CCCN(C)C2=O [Example 108, 7-chloro-10,14,30-trimethyl-3,8,10,14,22,26,31-heptaazahexacyclo[19.6.2.1^2,5.1^16,20.0^4,9.0^25,29]hentriacont-1(28),2,4,6,8,16(30),17,19,21(29),22,24-undecaen-15,27-dione]	1	2
Cc1cc2ccc1-c1nccc3[nH]c(=O)c(cc13)-c1nc3c(nc(Cl)cc3[nH]1)N(C)CCC(=O)N(C)C2 [Example 109, 7-chloro-10,14,18-trimethyl-3,8,10,14,21,25,31-heptaazahexacyclo[18.6.2.2^16,19.1^2,5.0^4,9.0^24,28]hentriacont-1(27),2,4,6,8,16,18,20(28),21,23,29-undecaen-13,26-dione]	2.3	165
Cc1c2cccc1-c1nccc3[nH]c(=O)c(cc13)-c1nc3c(nc(Cl)cc3[nH]1)N1CCCN(CC1)C(=O)CO2 [Example 110, 7-chloro-32-methyl-17-oxa-3,8,10,14,24,28,35-heptaazaheptacyclo[21.6.2.2^10,14.1^2,5.1^18,22.0^4,9.0^27,31]pentatriacont-1(30),2,4,6,8,18(32),19,21,23(31),24,26-undecaen-15,29-dione]	1.3	1.1
Cc1c2cccc1-c1nccc3[nH]c(=O)c(cc13)-c1nc3c(nc(Cl)cc3[nH]1)NCC(C)(C)NC(=O)CO2 [Example 111, 7-chloro-12,12,31-trimethyl-16-oxa-3,8,10,13,23,27,32-heptaazahexacyclo[20.6.2.1^2,5.1^17,21.0^4,9.0^26,30]dotriacont-1(29),2,4,6,8,17(31),18,20,22(30),23,25-undecaen-14,28-dione]	1.6	8.4
O=C1CS(=O)(=O)c2cccc(c2)-c2nccc3[nH]c(=O)c(cc23)-c2nc3c(nc(Cl)cc3[nH]2)N2CCCN1CC2 [Example 112, 7-chloro-17-thia-3,8,10,14,24,28,35-heptaazaheptacyclo[21.6.2.2^10,14.1^2,5.1^18,22.0^4,9.0^27,31]pentatriacont-1(30)2,4,6,8,18(32),19,21,23(31),24,26-undecaen-15,29-dione17,17-dioxide]	1.3	510
Cc1nn2c(C)c1-c1nccc3[nH]c(=O)c(cc13)-c1nc3c(nc(Cl)cc3[nH]1)N(C)CCCCN(C)C(=O)C2 [Example 113, 7-chloro-10,15,20,31-tetramethyl-3,8,10,15,18,19,23,27,32-nonaazahexacyclo[20.6.2.1^2,5.1^18,21.0^4,9 .0^26,30]dotriacont-1(29),2,4,6,8,19,21(31),22(30),23,25-decaen-16,28-dione]	0.38	8.3
Cc1nn2c(C)c1-c1nccc3[nH]c(=O)c(cc13)-c1nc3c(nc(Cl)cc3[nH]1)N(C)CCCN(C)C(=O)C2C (stereo not shown) [Example 114, 7-chloro-10,14,16,19,30-pentamethyl-3,8,10,14,17,18,22,26,31-nonaazahexacyclo[19.6.2.1^2,5.1^17,20.0^4,9.0^25,29]hentriacont-1(28),2,4,6,8,18,20(30),21(29),22,24-decaen-15,27-dione]	1.1	3.2
Cc1nn2c(C)c1-c1nccc3[nH]c(=O)c(cc13)-c1nc3c(nc(Cl)cc3[nH]1)NCC(C)(C)CNC(=O)C2 [Example 115, 7-chloro-12,12,19,30-tetramethyl-3,8,10,14,17,18,22,26,31-nonaazahexacyclo[19.6.2.1^2,5.1^17,20.0^4,9.0^25,29]hentriacont-1(28),2,4,6,8,18,20(30),21(29),22,24-decaen-15,27-dione]	0.64	58
